Reference: the supplement of paper PMC11061612

Key:
[1] = test system: TC-71 (Ewing's Sarcoma); assay: combination Emax (second highest fraction inhibited in the dose matrix, 72 h); higher = more inhibition; extreme values may be limits of the assay
Outline: (§1)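 Cell lines in DMEM/F12 or RPMI with 10% FBS were plated in 1536-well plates, held 24 hours at 37°C, 5% CO2, then given two-drug dose matrices for 72 hours (DMSO typically 0.2%). Viability was read by CellTiter-Glo 2.0 luminescence and scaled as inhibition from 0 (vehicle wells) to 1 (blank wells). Combination Emax is the second-highest inhibition in the matrix; Bliss excess is observed combination effect minus expected EA + EB − EA·EB, EA and EB being single-agent effects.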

[2] = test system: PANC-08-13 (Pancreatic Carcinoma); assay: as above
Outline: as §1

[3] = test system: SU-DHL-8 (B-Cell Non-Hodgkin's Lymphoma); assay: as above
Outline: as §1

[4] = test system: MFM-223 (Breast Carcinoma); assay: as above
Outline: as §1

[5] = test system: MS751 (Cervical Carcinoma); assay: as above
Outline: as §1

[6] = test system: KCL-22 (Chronic Myelogenous Leukemia); assay: as above
Outline: as §1

[7] = test system: MEL-JUSO (Melanoma); assay: as above
Outline: as §1

[8] = test system: TOV-112D (Ovarian Carcinoma); assay: as above
Outline: as §1

[9] = test system: TE-6 (Esophageal Squamous Cell Carcinoma); assay: as above
Outline: as §1

[10] = test system: KARPAS-45 (T-Lymphoblastic Leukemia); assay: as above
Outline: as §1

[11] = test system: COLO-678 (Colorectal Carcinoma); assay: as above
Outline: as §1

[12] = test system: KYSE-180 (Esophageal Squamous Cell Carcinoma); assay: as above
Outline: as §1

[13] = test system: HL-60 (Acute Myeloid Leukemia); assay: as above
Outline: as §1

[14] = test system: KM12 (Colorectal Carcinoma); assay: as above
Outline: as §1

[15] = test system: HDQ-P1 (Breast Carcinoma); assay: as above
Outline: as §1

[16] = test system: P12-ICHIKAWA (T-Lymphoblastic Leukemia); assay: as above
Outline: as §1

[17] = test system: EVSA-T (Breast Carcinoma); assay: as above
Outline: as §1

[18] = test system: CHP-212 (Neuroblastoma); assay: as above
Outline: as §1

[19] = test system: LN-18 (Glioblastoma); assay: as above
Outline: as §1

[20] = test system: MOLT-16 (T-Lymphoblastic Leukemia); assay: as above
Outline: as §1

[21] = test system: DiFi (Colorectal Carcinoma); assay: as above
Outline: as §1

[22] = test system: U251 (Low Grade Glioma); assay: as above
Outline: as §1

[23] = test system: TC-71 (Ewing's Sarcoma); assay: Bliss excess, mean over the matrix (fraction); higher = more synergy
Outline: as §1

[24] = test system: PANC-08-13 (Pancreatic Carcinoma); assay: as above
Outline: as §1

[25] = test system: SU-DHL-8 (B-Cell Non-Hodgkin's Lymphoma); assay: as above
Outline: as §1

[26] = test system: MFM-223 (Breast Carcinoma); assay: as above
Outline: as §1

[27] = test system: MS751 (Cervical Carcinoma); assay: as above
Outline: as §1

[28] = test system: KCL-22 (Chronic Myelogenous Leukemia); assay: as above
Outline: as §1

[29] = test system: MEL-JUSO (Melanoma); assay: as above
Outline: as §1

[30] = test system: TOV-112D (Ovarian Carcinoma); assay: as above
Outline: as §1

[31] = test system: TE-6 (Esophageal Squamous Cell Carcinoma); assay: as above
Outline: as §1

[32] = test system: KARPAS-45 (T-Lymphoblastic Leukemia); assay: as above
Outline: as §1

[33] = test system: COLO-678 (Colorectal Carcinoma); assay: as above
Outline: as §1

[34] = test system: KYSE-180 (Esophageal Squamous Cell Carcinoma); assay: as above
Outline: as §1

[35] = test system: HL-60 (Acute Myeloid Leukemia); assay: as above
Outline: as §1

[36] = test system: KM12 (Colorectal Carcinoma); assay: as above
Outline: as §1

[37] = test system: HDQ-P1 (Breast Carcinoma); assay: as above
Outline: as §1

[38] = test system: P12-ICHIKAWA (T-Lymphoblastic Leukemia); assay: as above
Outline: as §1

[39] = test system: EVSA-T (Breast Carcinoma); assay: as above
Outline: as §1

[40] = test system: CHP-212 (Neuroblastoma); assay: as above
Outline: as §1

[41] = test system: LN-18 (Glioblastoma); assay: as above
Outline: as §1

[42] = test system: MOLT-16 (T-Lymphoblastic Leukemia); assay: as above
Outline: as §1

[43] = test system: DiFi (Colorectal Carcinoma); assay: as above
Outline: as §1

[44] = test system: U251 (Low Grade Glioma); assay: as above
Outline: as §1
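Throughout, for Bliss excess, mean over the matrix: after 72 h of two-drug dosing.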

Compound: CC(=O)c1c(C)c2cnc(Nc3ccc(N4CCNCC4)cn3)nc2n(C2CCCC2)c1=O [Palbociclib] + CN(CC[C@H](CSC1=CC=CC=C1)NC2=C(C=C(C=C2)S(=O)(=O)NC(=O)C3=CC=C(C=C3)N4CCC(CC4)[C@H](C5=CC=CC=C5C6=CC=C(C=C6)Cl)O)S(=O)(=O)C(F)(F)F)CCO [AZD4320] (first compound max 10 µM, 7x7, partner max 1 µM)
- combination Emax [1]: 0.828
- combination Emax [2]: 0.384
- combination Emax [3]: 1
- combination Emax [4]: 0.406
- combination Emax [5]: 0.159
- combination Emax [6]: 0.82
- combination Emax [7]: 0.356
- combination Emax [8]: 0.584
- combination Emax [9]: 0.363
- combination Emax [10]: 1
- combination Emax [11]: 0.354
- combination Emax [12]: 0.462
- combination Emax [13]: 0.956
- combination Emax [14]: 0.768
- combination Emax [15]: 0.677
- combination Emax [16]: 1
- combination Emax [17]: 0.444
- combination Emax [18]: 0.829
- combination Emax [19]: 0.517
- combination Emax [20]: 1
- combination Emax [21]: 0.812
- combination Emax [22]: 0.294
- Bliss excess [23]: -0.0326
- Bliss excess [24]: -0.0459
- Bliss excess [25]: -0.106
- Bliss excess [26]: -0.0021
- Bliss excess [27]: -0.0552
- Bliss excess [28]: -0.0299
- Bliss excess [29]: -0.099
- Bliss excess [30]: -0.0002
- Bliss excess [31]: -0.0596
- Bliss excess [32]: -0.0035
- Bliss excess [33]: -0.0747
- Bliss excess [34]: -0.0269
- Bliss excess [35]: -0.102
- Bliss excess [36]: -0.0377
- Bliss excess [37]: -0.0735
- Bliss excess [38]: -0.0298
- Bliss excess [39]: -0.0631
- Bliss excess [40]: -0.0366
- Bliss excess [41]: -0.0081
- Bliss excess [42]: -0.0494
- Bliss excess [43]: -0.0038
- Bliss excess [44]: -0.0989

Compound: C[C@@H](c1ccc2nccn2c1)n1nnc2ncc(-c3cnn(C)c3)nc21 [Savolitinib] + CN(CC[C@H](CSC1=CC=CC=C1)NC2=C(C=C(C=C2)S(=O)(=O)NC(=O)C3=CC=C(C=C3)N4CCC(CC4)[C@H](C5=CC=CC=C5C6=CC=C(C=C6)Cl)O)S(=O)(=O)C(F)(F)F)CCO [AZD4320] (first compound max 1 µM, 7x7, partner max 1 µM)
- combination Emax [1]: 0.585
- combination Emax [2]: 0.394
- combination Emax [3]: 0.932
- combination Emax [4]: 0.225
- combination Emax [5]: 0.184
- combination Emax [6]: 0.268
- combination Emax [7]: 0.257
- combination Emax [8]: 0.0682
- combination Emax [9]: 0.427
- combination Emax [10]: 0.976
- combination Emax [11]: 0.226
- combination Emax [12]: 0.13
- combination Emax [13]: 0.856
- combination Emax [14]: 0.139
- combination Emax [15]: 0.591
- combination Emax [16]: 1
- combination Emax [17]: 0.248
- combination Emax [18]: 0.178
- combination Emax [19]: 0.163
- combination Emax [20]: 1
- combination Emax [21]: 0.495
- combination Emax [22]: 0.176
- Bliss excess [23]: -0.0266
- Bliss excess [24]: -0.0588
- Bliss excess [25]: 0.0282
- Bliss excess [26]: -0.0726
- Bliss excess [27]: 0.0315
- Bliss excess [28]: -0.0201
- Bliss excess [29]: -0.0487
- Bliss excess [30]: -0.0414
- Bliss excess [31]: -0.0312
- Bliss excess [32]: -0.0289
- Bliss excess [33]: -0.0766
- Bliss excess [34]: -0.0161
- Bliss excess [35]: -0.0536
- Bliss excess [36]: -0.0156
- Bliss excess [37]: -0.0432
- Bliss excess [38]: -0.0097
- Bliss excess [39]: 0.0099
- Bliss excess [40]: -0.0613
- Bliss excess [41]: -0.0406
- Bliss excess [42]: -0.0222
- Bliss excess [43]: -0.0713
- Bliss excess [44]: -0.0546
